Legend:
[1] = target: Recombinant G2019S-LRRK2 protein (Homo sapiens (Human), UniProt Q5S007, G2019S); experiment: LRRK2 kinase activity, LanthaScreen TR-FRET assay (G2019S); format: biochemical; details: LRRKtide 400 nM, 25 μM ATP, 60 min
Procedure: (§1) LRRK2 kinase activity was measured using a LanthaScreen™ Kinase Activity Assay from ThermoFisher Scientific. Recombinant wild type or G2019S-LRRK2 protein (Life Technologies, PR8604B or PV4881, respectively), was incubated with a fluorescein-labeled peptide substrate called LRRKtide that is based upon ezrin/radixin/moesin (ERM) (Life Technologies, PV4901) in the presence of ATP and serially diluted compound. […] Compound-dependent inhibition of the TR-FRET signal was used to generate a concentration-response curve for IC50 determination.
(§2) After 60 min incubation at room temperature, the reaction was stopped by addition of 10 μL of 2× stop solution containing a final concentration of 2 nM anti-pERM antibody and 10 mM EDTA. […] The ratio of the 520 nm and 495 nm emission was used to analyze the data.

[2] = target: Recombinant wild type LRRK2 protein (Homo sapiens (Human), UniProt Q5S007); experiment: LRRK2 kinase activity, LanthaScreen TR-FRET assay (wild type); format: biochemical; details: LRRKtide 400 nM, 25 μM ATP, 60 min; read-out: LRRK2 WT IC50
Procedure: as §1, §2

Chain of Recombinant G2019S-LRRK2 protein (Q5S007 whole entry G2019S): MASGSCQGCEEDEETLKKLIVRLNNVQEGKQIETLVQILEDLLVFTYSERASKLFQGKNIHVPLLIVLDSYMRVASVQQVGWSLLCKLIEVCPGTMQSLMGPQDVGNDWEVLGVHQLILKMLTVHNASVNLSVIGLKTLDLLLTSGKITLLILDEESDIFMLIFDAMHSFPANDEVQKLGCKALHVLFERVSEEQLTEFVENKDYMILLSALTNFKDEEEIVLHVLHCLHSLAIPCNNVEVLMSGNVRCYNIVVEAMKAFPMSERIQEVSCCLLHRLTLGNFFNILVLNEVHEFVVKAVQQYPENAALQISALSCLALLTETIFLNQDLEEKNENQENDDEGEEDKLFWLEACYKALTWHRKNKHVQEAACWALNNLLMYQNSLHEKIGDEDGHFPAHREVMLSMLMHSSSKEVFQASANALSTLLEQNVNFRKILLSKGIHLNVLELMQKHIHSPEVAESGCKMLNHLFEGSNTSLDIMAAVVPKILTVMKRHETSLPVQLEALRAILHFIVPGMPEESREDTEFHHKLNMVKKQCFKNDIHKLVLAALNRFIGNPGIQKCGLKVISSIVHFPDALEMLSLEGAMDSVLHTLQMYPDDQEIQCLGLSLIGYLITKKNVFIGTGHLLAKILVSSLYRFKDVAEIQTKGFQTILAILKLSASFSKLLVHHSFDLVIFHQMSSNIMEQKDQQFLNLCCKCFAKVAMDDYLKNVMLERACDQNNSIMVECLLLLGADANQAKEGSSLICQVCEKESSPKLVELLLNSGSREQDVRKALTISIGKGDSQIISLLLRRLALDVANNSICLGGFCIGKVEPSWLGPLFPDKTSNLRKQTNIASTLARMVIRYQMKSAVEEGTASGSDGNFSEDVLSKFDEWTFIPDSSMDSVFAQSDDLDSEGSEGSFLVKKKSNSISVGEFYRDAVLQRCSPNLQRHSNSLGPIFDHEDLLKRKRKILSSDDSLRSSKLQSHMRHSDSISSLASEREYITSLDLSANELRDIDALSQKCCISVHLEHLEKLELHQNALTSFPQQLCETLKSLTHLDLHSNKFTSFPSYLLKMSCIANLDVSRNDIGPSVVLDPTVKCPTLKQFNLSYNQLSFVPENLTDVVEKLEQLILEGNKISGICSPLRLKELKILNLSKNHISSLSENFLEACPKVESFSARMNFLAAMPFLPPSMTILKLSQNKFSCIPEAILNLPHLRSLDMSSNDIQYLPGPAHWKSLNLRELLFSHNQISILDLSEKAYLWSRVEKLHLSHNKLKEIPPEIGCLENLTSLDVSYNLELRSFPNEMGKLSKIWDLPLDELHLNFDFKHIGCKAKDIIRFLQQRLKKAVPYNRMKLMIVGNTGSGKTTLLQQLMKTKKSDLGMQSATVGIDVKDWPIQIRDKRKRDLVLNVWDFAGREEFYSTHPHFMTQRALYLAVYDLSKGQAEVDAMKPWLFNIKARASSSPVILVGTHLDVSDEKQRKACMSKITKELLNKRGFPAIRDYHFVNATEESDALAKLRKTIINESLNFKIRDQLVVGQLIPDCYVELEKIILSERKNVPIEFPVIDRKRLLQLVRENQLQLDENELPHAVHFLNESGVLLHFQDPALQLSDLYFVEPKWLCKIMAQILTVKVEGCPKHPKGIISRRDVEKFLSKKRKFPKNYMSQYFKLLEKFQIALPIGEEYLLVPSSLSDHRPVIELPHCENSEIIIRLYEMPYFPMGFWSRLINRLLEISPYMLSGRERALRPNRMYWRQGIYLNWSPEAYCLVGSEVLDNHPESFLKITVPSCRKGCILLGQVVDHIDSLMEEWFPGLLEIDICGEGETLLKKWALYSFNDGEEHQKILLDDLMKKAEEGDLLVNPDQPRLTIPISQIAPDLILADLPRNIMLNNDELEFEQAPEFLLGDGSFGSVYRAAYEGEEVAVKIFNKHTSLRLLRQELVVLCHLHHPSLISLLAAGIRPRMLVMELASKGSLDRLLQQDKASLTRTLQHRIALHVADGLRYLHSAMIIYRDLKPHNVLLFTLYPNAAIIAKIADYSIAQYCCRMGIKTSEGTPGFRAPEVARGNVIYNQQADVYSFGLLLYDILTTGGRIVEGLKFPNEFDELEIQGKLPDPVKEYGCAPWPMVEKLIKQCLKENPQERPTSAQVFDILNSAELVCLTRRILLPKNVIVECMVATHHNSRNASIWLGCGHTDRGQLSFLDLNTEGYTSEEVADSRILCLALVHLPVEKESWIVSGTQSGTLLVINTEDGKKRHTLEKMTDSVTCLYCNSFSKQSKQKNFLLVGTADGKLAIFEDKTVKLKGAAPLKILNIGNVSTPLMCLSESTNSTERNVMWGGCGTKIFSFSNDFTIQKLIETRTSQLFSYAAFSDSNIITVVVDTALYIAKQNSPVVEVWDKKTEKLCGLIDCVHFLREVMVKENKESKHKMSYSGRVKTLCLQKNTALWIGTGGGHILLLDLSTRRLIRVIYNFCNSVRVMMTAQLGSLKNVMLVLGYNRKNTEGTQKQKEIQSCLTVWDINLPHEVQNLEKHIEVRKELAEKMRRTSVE
Chain of Recombinant wild type LRRK2 protein (Q5S007 whole entry): as the sequence (Q5S007 whole entry G2019S) above, with S2019G counted along it

Compound | IC50 [1] [nM] | IC50 [2] [nM]
Cc1cc(C#N)cnc1C(=O)Nc1ccc2[nH]nc(-c3cncc(OC(C)C)c3)c2c1 [Example 109, 5-Cyano-N-(3-(5-isopropoxypyridin-3-yl)-1H-indazol-5-yl)-3-methylpicolinamide] | < 100 | 100 to 1000
Cn1cc(C#N)cc1C(=O)Nc1ccc2[nH]nc(-c3cnoc3)c2c1 [Example 247, 4-Cyano-N-(3-(isoxazol-4-yl)-1H-indazol-5-yl)-1-methyl-1H-pyrrole-2-carboxamide] | < 100 | < 100
COc1n[nH]c2ccc(NC(=O)c3nc(Cl)c(C#N)c(C)c3C)cc12 [Example 308, 6-Chloro-5-cyano-N-(3-methoxy-1H-indazol-5-yl)-3,4-dimethylpicolinamide] | < 100 | < 100
Cc1c(C#N)cnc(C(=O)Nc2ccc3[nH]nc(-c4cnn(C(F)F)c4)c3c2)c1C [Example 157, 5-Cyano-N-(3-(1-(difluoromethyl)-1H-pyrazol-4-yl)-1H-indazol-5-yl)-3,4-dimethylpicolinamide] | < 100 | < 100
Cc1c(C(=O)Nc2ccc3[nH]nc(-c4cnco4)c3c2)nc(Cl)c(C#N)c1C [Example 184, 6-Chloro-5-cyano-3,4-dimethyl-N-(3-(oxazol-5-yl)-1H-indazol-5-yl)picolinamide] | < 100 | < 100
Cc1c(C#N)cccc1C(=O)Nc1cc(C)c2[nH]nc(-c3ccoc3)c2c1 [Example 88, 3-cyano-N-(3-(furan-3-yl)-7-methyl-1H-indazol-5-yl)-2-methylbenzamide] | 100 to 1000 | 1000 to 10000
Cc1ccc(C#N)cc1C(=O)Nc1ccc2[nH]nc(-c3ccoc3)c2c1 [Example 17, 5-Cyano-N-(3-(furan-3-yl)-1H-indazol-5-yl)-2-methylbenzamide] | < 100 | < 100
Cc1cc(C#N)cnc1C(=O)Nc1ccc2[nH]nc(-c3cnco3)c2c1 [Example 111, 5-Cyano-3-methyl-N-(3-(oxazol-5-yl)-1H-indazol-5-yl)picolinamide] | < 100 | 100 to 1000
N#Cc1ccnc(C(=O)Nc2ccc3[nH]nc(-c4ccoc4)c3c2)c1F [Example 79, 4-Cyano-3-fluoro-N-(3-(furan-3-yl)-1H-indazol-5-yl)picolinamide] | 100 to 1000 | 100 to 1000
Cc1cc(C#N)cnc1C(=O)Nc1ccc2[nH]nc(-c3cccc(N(C)C)c3)c2c1 [Example 30, 5-Cyano-N-(3-(3-(dimethylamino)phenyl)-1H-indazol-5-yl)-3-methylpicolinamide] | < 100 | 100 to 1000
Cc1cc(C#N)cnc1C(=O)Nc1ccc2[nH]nc(NC(=O)c3ccccc3)c2c1 [Example 135, N-(3-Benzamido-1H-indazol-5-yl)-5-cyano-3-methylpicolinamide] | 100 to 1000 | 1000 to 10000
Cc1c(C#N)cnc(C(=O)Nc2ccc3[nH]nc(-c4cnn(C5CCN(C)CC5)c4)c3c2)c1C [Example 215, 5-Cyano-3,4-dimethyl-N-(3-(1-(1-methylpiperidin-4-yl)-1H-pyrazol-4-yl)-1H-indazol-5-yl)picolinamide] | < 100 | < 100
COc1cc(-c2n[nH]c3ccc(NC(=O)c4ncc(C#N)cc4C(F)(F)F)cc23)ccn1 [Example 178, 5-Cyano-N-(3-(2-methoxypyridin-4-yl)-1H-indazol-5-yl)-3-(trifluoromethyl)picolinamide] | < 100 | < 100
C/C=C/c1n[nH]c2ccc(NC(=O)c3nc(Cl)c(C#N)c(C)c3C)cc12 [Example 282, (E)-6-chloro-5-cyano-3,4-dimethyl-N-(3-(prop-1-en-1-yl)-1H-indazol-5-yl)picolinamide] | < 100 | < 100
Cc1ncc(-c2n[nH]c3ccc(NC(=O)c4ncc(C#N)cc4C)cc23)s1 [Example 140, 5-Cyano-3-methyl-N-(3-(2-methylthiazol-5-yl)-1H-indazol-5-yl)picolinamide] | < 100 | < 100
C=C(C)c1c(C#N)cccc1C(=O)Nc1ccc2[nH]nc(C)c2c1 [Example 274, 3-Cyano-N-(3-methyl-1H-indazol-5-yl)-2-(prop-1-en-2-yl)benzamide] | < 100 | 1000 to 10000
Cc1c(C#N)cnc(C(=O)Nc2ccc3[nH]nc(/C=C/c4ccccc4)c3c2)c1C [Example 244, (E)-5-Cyano-3,4-dimethyl-N-(3-styryl-1H-indazol-5-yl)picolinamide] | < 100 | < 100
Cc1cc(C#N)ccc1C(=O)Nc1ccc2[nH]nc(-c3ccoc3)c2c1 [Example 18, 4-Cyano-N-(3-(furan-3-yl)-1H-indazol-5-yl)-2-methylbenzamide] | < 100 | < 100

Compound | IC50 [1] [nM] | IC50 [2] [nM]
Cc1cc(C#N)cnc1C(=O)Nc1ccc2[nH]nc(-c3cccc(P(C)(C)=O)c3)c2c1 [Example 319, 5-Cyano-N-(3-(3-(dimethylphosphoryl)phenyl)-1H-indazol-5-yl)-3-methylpicolinamide] | < 100 | 100 to 1000
Cc1c(C#N)cnc(C(=O)Nc2ccc3[nH]nc(C)c3c2)c1C [Example 297, 5-Cyano-3,4-dimethyl-N-(3-methyl-1H-indazol-5-yl)picolinamide] | < 100 | 100 to 1000
N#Cc1ncc(C(=O)Nc2ccc3[nH]nc(-c4ccoc4)c3c2)s1 [Example 20, 2-Cyano-N-(3-(furan-3-yl)-1H-indazol-5-yl)thiazole-5-carboxamide] | < 100 | 100 to 1000
Cc1cc(C#N)cnc1C(=O)Nc1ccc2[nH]nc(-c3cncc(N4CCOCC4)c3)c2c1 [Example 37, 5-Cyano-3-methyl-N-(3-(5-morpholinopyridin-3-yl)-1H-indazol-5-yl)picolinamide] | < 100 | 100 to 1000
N#Cc1cnc(C(=O)Nc2ccc3[nH]nc(-c4ccoc4)c3c2)c(C(F)F)c1 [Example 64, 5-Cyano-3-(difluoromethyl)-N-(3-(furan-3-yl)-1H-indazol-5-yl)picolinamide] | < 100 | 100 to 1000
CCc1nc(C(=O)Nc2ccc3[nH]nc(C4CC4)c3c2)c(C)c(C)c1C#N [Example 333, 5-Cyano-N-(3-cyclopropyl-1H-indazol-5-yl)-6-ethyl-3,4-dimethylpicolinamide] | < 100 | 100 to 1000
Cc1c(C#N)nn(C)c1C(=O)Nc1ccc2[nH]nc(-c3cnoc3)c2c1 [Example 196, 3-Cyano-N-(3-(isoxazol-4-yl)-1H-indazol-5-yl)-1,4-dimethyl-1H-pyrazole-5-carboxamide] | < 100 | 100 to 1000
Cc1n[nH]c2ccc(NC(=O)c3cccc(C#N)c3C(C)C)cc12 [Example 295, 3-Cyano-2-isopropyl-N-(3-methyl-1H-indazol-5-yl)benzamide] | < 100 | 100 to 1000
COc1cc(-c2n[nH]c3ccc(NC(=O)c4ncc(C#N)c(C)c4C)cc23)ccn1 [Example 159, 5-Cyano-N-(3-(2-methoxypyridin-4-yl)-1H-indazol-5-yl)-3,4-dimethylpicolinamide] | < 100 | < 100
Cc1cc(C#N)cc(F)c1C(=O)Nc1ccc2[nH]nc(-c3cnco3)c2c1 [Example 190, 4-Cyano-2-fluoro-6-methyl-N-(3-(oxazol-5-yl)-1H-indazol-5-yl)benzamide] | < 100 | < 100
COc1cc(C#N)ccc1C(=O)Nc1ccc2[nH]nc(-c3ccoc3)c2c1 [Example 15, 4-Cyano-N-(3-(furan-3-yl)-1H-indazol-5-yl)-2-methoxybenzamide] | < 100 | 100 to 1000
Cc1cc(C(=O)Nc2ccc3[nH]nc(-c4ccoc4)c3c2)ncc1C#N [Example 94, 5-Cyano-N-(3-(furan-3-yl)-1H-indazol-5-yl)-4-methylpicolinamide] | < 100 | 100 to 1000
Cc1c(C(=O)Nc2ccc3[nH]nc(-c4cnco4)c3c2)cc(C#N)c(=O)n1C [Example 213, 5-Cyano-1,2-dimethyl-N-(3-(oxazol-5-yl)-1H-indazol-5-yl)-6-oxo-1,6-dihydropyridine-3-carboxamide] | < 100 | < 100
COc1nc(C(=O)Nc2ccc3[nH]nc(C)c3c2)c(C)c(C)c1C#N [Example 322, 5-Cyano-6-methoxy-3,4-dimethyl-N-(3-methyl-1H-indazol-5-yl)picolinamide] | < 100 | < 100
Cc1c(C#N)cnc(C(=O)Nc2ccc3[nH]nc(C=C4CCOCC4)c3c2)c1C [Example 262, 5-Cyano-3,4-dimethyl-N-(3-((tetrahydro-4H-pyran-4-ylidene)methyl)-1H-indazol-5-yl)picolinamide] | 1000 to 10000 | 1000 to 10000
Cc1cc(C#N)cnc1C(=O)Nc1cc(C)c2[nH]nc(-c3ccoc3)c2c1 [Example 80, 5-Cyano-N-(3-(furan-3-yl)-7-methyl-1H-indazol-5-yl)-3-methylpicolinamide] | 100 to 1000 | 1000 to 10000
Cc1cc(C#N)cnc1C(=O)Nc1ccc2[nH]nc(-c3ccnc(Br)c3)c2c1 [Example 103, N-(3-(2-Bromopyridin-4-yl)-1H-indazol-5-yl)-5-cyano-3-methylpicolinamide] | < 100 | < 100
Cc1nc(C#N)n(C)c1C(=O)Nc1ccc2[nH]nc(-c3ccccc3)c2c1 [Example 43, 2-Cyano-1,4-dimethyl-N-(3-phenyl-1H-indazol-5-yl)-1H-imidazole-5-carboxamide] | < 100 | 100 to 1000

Reference: patent publication US11427558B1, “Indazoles and azaindazoles as LRRK2 inhibitors” (ESCAPE Bio, Inc., priority 2019, dated 2022)
